Results published in patent EP4241843B1, “ALCOHOL DERIVATIVES AS KV7 POTASSIUM CHANNEL OPENERS” (H. Lundbeck A/S, priority 2018, dated 2019).

Tests used:
HEK-hKv7.2/hKv7.3 cells = target: T1, HEK-hKv7.2/hKv7.3 cells (Homo sapiens, UniProt O43525+O43526); test: Thallium influx assay for potassium channel activation; assay type: cell-based; conditions: AUC as readout, normalized to a reference compound
T1 construct: P2A self-cleaving peptide between the two subunits (remnant after ribosomal skipping); expressed in transfected cells
T1 sequence (O43525 whole entry): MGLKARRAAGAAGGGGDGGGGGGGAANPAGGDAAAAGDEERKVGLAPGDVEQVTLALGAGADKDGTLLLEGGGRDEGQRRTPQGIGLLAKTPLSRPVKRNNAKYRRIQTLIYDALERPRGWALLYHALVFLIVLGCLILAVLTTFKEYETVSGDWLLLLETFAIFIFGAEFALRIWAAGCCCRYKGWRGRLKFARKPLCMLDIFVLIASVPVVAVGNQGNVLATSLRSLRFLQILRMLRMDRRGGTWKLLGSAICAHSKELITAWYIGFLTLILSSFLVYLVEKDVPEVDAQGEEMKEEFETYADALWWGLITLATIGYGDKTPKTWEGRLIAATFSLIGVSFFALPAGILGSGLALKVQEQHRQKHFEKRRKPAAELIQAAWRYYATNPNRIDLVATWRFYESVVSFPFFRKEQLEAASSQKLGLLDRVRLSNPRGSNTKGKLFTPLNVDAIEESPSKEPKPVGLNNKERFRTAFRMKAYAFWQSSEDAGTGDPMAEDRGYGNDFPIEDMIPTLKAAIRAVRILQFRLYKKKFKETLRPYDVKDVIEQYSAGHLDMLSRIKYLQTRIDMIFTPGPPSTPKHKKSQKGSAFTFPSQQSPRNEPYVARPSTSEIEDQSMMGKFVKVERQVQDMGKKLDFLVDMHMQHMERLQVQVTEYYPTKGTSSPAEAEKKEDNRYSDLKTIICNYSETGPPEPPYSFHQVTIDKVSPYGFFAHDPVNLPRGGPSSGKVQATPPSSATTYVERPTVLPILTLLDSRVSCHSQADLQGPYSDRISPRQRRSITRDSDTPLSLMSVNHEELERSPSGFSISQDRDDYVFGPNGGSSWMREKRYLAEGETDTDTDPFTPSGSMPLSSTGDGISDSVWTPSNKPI
T1 sequence (O43526 whole entry): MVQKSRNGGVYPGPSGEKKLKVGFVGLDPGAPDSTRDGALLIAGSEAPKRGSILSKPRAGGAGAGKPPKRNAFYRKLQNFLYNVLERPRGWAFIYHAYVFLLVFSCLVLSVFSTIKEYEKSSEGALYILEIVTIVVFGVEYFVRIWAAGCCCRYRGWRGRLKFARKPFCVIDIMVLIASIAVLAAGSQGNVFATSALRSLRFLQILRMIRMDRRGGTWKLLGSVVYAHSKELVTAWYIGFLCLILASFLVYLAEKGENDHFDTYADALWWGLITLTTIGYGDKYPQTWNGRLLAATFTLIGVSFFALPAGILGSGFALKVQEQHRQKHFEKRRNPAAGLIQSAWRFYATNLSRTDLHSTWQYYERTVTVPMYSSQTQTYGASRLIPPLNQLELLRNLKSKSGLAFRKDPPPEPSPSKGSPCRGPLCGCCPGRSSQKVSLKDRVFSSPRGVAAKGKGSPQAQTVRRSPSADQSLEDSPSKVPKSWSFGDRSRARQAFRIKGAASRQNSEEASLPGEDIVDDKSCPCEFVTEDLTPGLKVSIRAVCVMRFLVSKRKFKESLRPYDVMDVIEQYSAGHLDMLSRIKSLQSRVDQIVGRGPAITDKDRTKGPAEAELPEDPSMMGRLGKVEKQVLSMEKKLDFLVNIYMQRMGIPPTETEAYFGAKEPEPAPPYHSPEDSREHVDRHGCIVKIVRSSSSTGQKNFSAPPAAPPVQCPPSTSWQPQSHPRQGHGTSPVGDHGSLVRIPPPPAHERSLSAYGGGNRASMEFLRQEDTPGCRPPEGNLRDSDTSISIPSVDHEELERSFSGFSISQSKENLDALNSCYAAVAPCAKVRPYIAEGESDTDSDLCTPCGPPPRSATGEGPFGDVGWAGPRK
Description: (§1) A synthesized cDNA fragment encoding human Kv7.3 and human Kv7.2 separated by a P2A sequence was inserted into the pcDNA5/FRT/TO vector using the BamHI and XhoI restriction sites. The construct was then transfected into HEK Flp-In 293 cells using Lipofectamine2000. The transfected cells were grown for 48 hours in DMEM containing 10% (v/v) FBS and 1% PenStrep and subsequently maintained under selection in DMEM containing 10% (v/v) FBS, 1 % PenStrep and 200 ug/mL Hygromycin B at 37°C in a humidified atmosphere of 5% CO2.
The thallium influx assay for potassium channel activation was performed analogously to a published procedure (C.D. Weaver, et al., J Biomol Screen 2004, 9, 671-677) using the FLIPR Potassium Assay kit (Molecular Devices). HEK-hKv7.2/hKv7.3 cells were plated onto 96-well, black-walled, clear-bottomed culture plates (Corning, Acton, MA, USA) at a density of 80,000 cells/well (100 µl/well) if the cells were assayed the following day, or 40,000 cells/well (100 µl/well) if the cells were assayed two days after seeding.
On the assay day, the medium was removed after which 50 uL/well of test compound diluted to 2x final concentration in HBSS containing 20 mM HEPES, and 50 uL/well of 2x dye load buffer were added. The cells were then incubated for 60 min at room temperature in the dark. Chloride-free stimulation buffer containing Tl^+ and K^+ at 5x final concentration (5x concentration: 5 mM in both cases) and test compound at 1x final concentration, were prepared during the incubation. The cells were then assayed in a FDSS7000EX Functional Drug Screening System (Hamamatsu). Following 60 sec of baseline fluorescence signal reading at 0.1 Hz, and 10 sec at 1 Hz, 25 uL/well of stimulation buffer were added and the fluorescence continuously measured for 50 sec at 1 Hz followed, by 4 min at 0.1 Hz. Compound effect was quantified using AUC as readout and normalized to a reference compound, which was included on each plate.

[1] = target: T2, hKv7.2/hKv7.3 cell line (HEK-hKv7.2/hKv7.3) (Homo sapiens, UniProt O43525+O43526); test: Automated whole cell patch-clamp functional test of the stable cell line; assay type: cell-based; conditions: stable HEK-hKv7.2/hKv7.3 cell line
T2 construct: P2A self-cleaving peptide between the two subunits (remnant after ribosomal skipping); expressed in transfected cells
T2 sequence (O43525 whole entry): as the sequence (O43525 whole entry) above
T2 sequence (O43526 whole entry): as the sequence (O43526 whole entry) above
Description: as §1

| SMILES | EC50 (HEK-hKv7.2/hKv7.3 cells) [µM] | effect on Kv7-current [1] |
| --- | --- | --- |
| C[C@H](NC(=O)CC1(O)CCC1)c1cccc(OCC(F)(F)F)c1 [Example 6, (S)-2-(1-Hydroxycyclobutyl)-N-(1-(3-(2,2,2-trifluoroethoxy)phenyl)ethyl) acetamide] | 3 |  |
| C[C@H](NC(=O)CC(O)C1CC(F)(F)C1)c1cccc(OC(F)(F)F)c1 (stereo in doubt) [Example 11a, 3-(3,3-Difluorocyclobutyl)-3-hydroxy-N-((S)-1-(3-(trifluoromethoxy)phenyl)ethyl)propanamide] | 1.5 |  |
| O=C1c2ccccc2C(Cc2ccncc2)(Cc2ccncc2)c2ccccc21 [XE991] |  | sensitive |
| C[C@H](NC(=O)C[C@H](O)C(C)(C)C)c1cccc(OC(F)(F)F)c1 [Example 1a, (S)-3-Hydroxy-4,4-dimethyl-N-((S)-1-(3-(trifluoromethoxy)phenyl)ethyl)pentanamide] | 0.68 |  |
| CCOC(=O)Nc1ccc(NCc2ccc(F)cc2)cc1N [Retigabine, N-(2-amino-4-(4-fluorobenzylamino)-phenyl) carbamic acid ethyl ester] |  | potentiated |
| C[C@H](NC(=O)C[C@@H](O)C(C)(C)C)c1cccc(OC(F)(F)F)c1 [Example 1b, (R)-3-Hydroxy-4,4-dimethyl-N-[(1S)-1-[3-(trifluoromethoxy)phenyl]ethyl]pentanamide] | 3.3 |  |
| C[C@H](NC(=O)CC(O)(C(F)(F)F)C(F)(F)F)c1cccc(OC(F)(F)F)c1 [Example 9, 4,4,4-Trifluoro-3-hydroxy-N-[(1S)-1-[3-(trifluoro-methoxy)phenyl]ethyl]-3-(trifluoromethyl)butanamide] | 0.56 |  |
| COC[C@H](NC(=O)CC1(O)CCCC1)c1cccc(OC(F)(F)F)c1 [Example 17, (R)-2-(1-Hydroxycyclopentyl)-N-(2-methoxy-1-(3-(trifluoromethoxy)phenyl)ethyl) acetamide] | 2.5 |  |
| C[C@H](NC(=O)CC1(O)CC(F)(F)C1)c1cccc(OC(F)(F)F)c1 [Example 5, (S)-2-(3,3-difluoro-1-hydroxycyclobutyl)-N-(1-(3-(trifluoromethoxy)phenyl)ethyl)acetamide] | 1.8 |  |
